Measured values from the supplement of paper PMC12420376.

Legend:
[1] = system: OVCAR8; experiment: drug sensitivity score (DSS2) on cancer cell count; higher = more sensitive; extreme values may be limits of the assay; settings: 72 h
Outline: (§1)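 Cancer cell counts came from 10× images (4 fields) of fixed cells immunostained for CK8/18 with Hoechst. The ovarian cancer cells had been grown alone or in 1:1 direct co-culture with lung or skin fibroblasts on 384-well plates pre-spotted acoustically with 528 approved and investigational compounds at 5 concentrations, then treated for 72 h. Breeze was used to derive a drug sensitivity score from logistic fits of the data.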

[2] = system: KURAMOCHI; experiment: as above; settings: 72 h
Outline: as §1

[3] = co-cultured fibroblast: BJHTERT
[4] = co-cultured fibroblast: none (monoculture)

| SMILES | drug sensitivity score [1, 3] [DSS] | drug sensitivity score ([1]; co-cultured fibroblast: WI38) [DSS] | drug sensitivity score [1, 4] [DSS] | drug sensitivity score [2, 3] [DSS] | drug sensitivity score ([2]; co-cultured fibroblast: WI38) [DSS] | drug sensitivity score [2, 4] [DSS] |
| --- | --- | --- | --- | --- | --- | --- |
| CCNc1nc(Nc2cc(F)c(C(=O)N3CCOCC3)cc2OC)ncc1C(F)(F)F [GNE-7915] | 0 | 0 | 0 | 0 | 0 | 0 |
| CCN(CC)CCN(Cc1ccc(-c2ccc(C(F)(F)F)cc2)cc1)C(=O)Cn1c(SCc2ccc(F)cc2)nc(=O)c2c1CCC2 [Darapladib] | 0 | 8.3 | 0.4 | 0 | 0 | 0 |
| CO[C@H]1C[C@@H]2CC[C@@H](C)[C@@](O)(O2)C(=O)C(=O)N2CCCC[C@H]2C(=O)O[C@H]([C@H](C)C[C@@H]2CC[C@@H](OC(=O)C(C)(CO)CO)[C@H](OC)C2)CC(=O)[C@H](C)/C=C(\C)[C@@H](O)[C@@H](OC)C(=O)[C@H](C)C[C@H](C)/C=C/C=C/C=C/1C [Temsirolimus] | 8.8 | 0 | 11 | 16.8 | 14.2 | 8.6 |
| N[C@@H]1CCCN(c2c(/C=C3\SC(=O)NC3=O)cccc2-c2ccccc2)C1 [AZD1208] | 0 | 0 | 1.8 | 0 | 1.7 | 1.3 |
| O=C(Nc1nc2cccc(-c3ccc(CN4CCS(=O)(=O)CC4)cc3)n2n1)C1CC1 [Filgotinib] | 2.9 | 1.3 | 1.7 | 5.1 | 5.2 | 2.4 |
| CNC(=O)c1ccc(N2C(=S)N(c3cnc(C#N)c(C(F)(F)F)c3)C(=O)C23CCC3)cc1F [Apalutamide] | 0 | 0 | 0 | 0 | 0 | 0 |
| CC(C)(C)c1nc(-c2cccc(NS(=O)(=O)c3c(F)cccc3F)c2F)c(-c2ccnc(N)n2)s1 [Dabrafenib] | 0.2 | 15.2 | 0.5 | 0 | 0 | 0 |
| CC(C)C[C@H](NC(=O)CNC(=O)c1cc(Cl)ccc1Cl)B(O)O [Ixazomib] | 1.8 | 8.7 | 11.3 | 1 | 11.6 | 7.6 |
| O=C(/C=C\n1cnc(-c2cc(C(F)(F)F)cc(C(F)(F)F)c2)n1)NNc1ccccn1 [Verdinexor] | 10.2 | 7.1 | 16.6 | 8.4 | 9.1 | 16.7 |
| CC[C@]1(O)C[C@@H]2CN(CCc3c([nH]c4ccccc34)[C@@](C(=O)OC)(c3cc4c(cc3OC)N(C)[C@H]3[C@@](O)(C(=O)OC)[C@H](OC(C)=O)[C@]5(CC)C=CCN6CC[C@]43[C@@H]65)C2)C1 [Vinblastine] | 18.9 | 5.2 | 15.7 | 4.9 | 4.2 | 20.8 |
| CCN(CC)CCCC(C)Nc1c2ccc(Cl)cc2nc2ccc(OC)cc12 (stereo not given) [Mepacrine] | 19.8 | 14.2 | 14.4 | 13.8 | 13.8 | 19.1 |
| CCc1cc2c(cc1N1CCC(N3CCOCC3)CC1)C(C)(C)c1[nH]c3cc(C#N)ccc3c1C2=O [Alectinib] | 0 | 0 | 0 | 0 | 0 | 0 |
| O=C(O)CC[C@H]1CC[C@@](c2cc(F)ccc2F)(S(=O)(=O)c2ccc(Cl)cc2)CC1 [MK-0752] | 3.7 | 0 | 0 | 0 | 0 | 0 |
| CC(C)Nc1cc(-c2c[nH]c(C(=O)N[C@H](CO)c3cccc(Cl)c3)c2)c(Cl)cn1 [Ulixertinib] | 8.8 | 13.9 | 11 | 9.7 | 9.6 | 12.2 |
| CC(C)N(CCCNC(=O)Nc1ccc(C(C)(C)C)cc1)C[C@H]1O[C@@H](n2cc(Br)c3c(N)ncnc32)[C@H](O)[C@@H]1O [SGC0946] | 0 | 0 | 0 | 0.1 | 3.3 | 0 |
| CC(C)(C)C[C@@H]1N[C@@H](C(=O)N[C@H]2CC[C@H](O)CC2)[C@H](c2cccc(Cl)c2F)[C@]12C(=O)Nc1cc(Cl)ccc12 | 2.5 | 0 | 0 | 0 | 0.1 | 0 |
| CNC(=O)CN1CCC(Oc2cc3c(Nc4cccc(Cl)c4F)ncnc3cc2OC)CC1 [Sapitinib] | 1.7 | 1 | 1.7 | 2.3 | 0 | 0 |
| CC(C)n1cnc2c(NCCc3ccc(O)cc3)nc(-c3csc4ccccc34)nc21 [StemRegenin 1] | 2.8 | 0 | 1 | 4.3 | 2.8 | 1.7 |
| CNC(=O)c1ccccc1Sc1ccc2c(/C=C/c3ccccn3)n[nH]c2c1 [Axitinib] | 7.4 | 5.6 | 6.7 | 8.7 | 8.4 | 7 |
| CCCOc1ccn2c(C(C)=O)cc(-c3ccccc3S(C)(=O)=O)c2c1 [GSK2801] | 0 | 0 | 0 | 0 | 0 | 0.9 |
